Data published in publication PMC3148428 (2011).

Target: T1, ABCG2 (Rattus norvegicus, UniProt Q80W57)
T1 sequence (Q80W57 1-657): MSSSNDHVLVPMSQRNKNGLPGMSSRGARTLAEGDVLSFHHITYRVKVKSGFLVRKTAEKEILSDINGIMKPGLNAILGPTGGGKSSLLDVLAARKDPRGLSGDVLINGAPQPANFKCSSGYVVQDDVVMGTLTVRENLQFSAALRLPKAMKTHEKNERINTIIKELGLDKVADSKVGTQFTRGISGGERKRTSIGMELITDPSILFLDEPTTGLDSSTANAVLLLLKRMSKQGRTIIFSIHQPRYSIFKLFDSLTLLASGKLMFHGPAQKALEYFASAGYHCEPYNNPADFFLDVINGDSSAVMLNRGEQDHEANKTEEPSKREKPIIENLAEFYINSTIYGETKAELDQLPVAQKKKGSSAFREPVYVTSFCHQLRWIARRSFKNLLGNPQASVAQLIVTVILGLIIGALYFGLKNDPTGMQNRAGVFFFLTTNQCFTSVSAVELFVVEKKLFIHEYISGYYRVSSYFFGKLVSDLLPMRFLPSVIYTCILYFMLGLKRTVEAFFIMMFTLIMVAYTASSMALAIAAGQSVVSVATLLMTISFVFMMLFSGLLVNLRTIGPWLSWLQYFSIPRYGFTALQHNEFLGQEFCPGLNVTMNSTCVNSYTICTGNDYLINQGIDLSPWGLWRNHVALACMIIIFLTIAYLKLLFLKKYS

## Cc1cn(-c2cc(NC(=O)c3ccc(C)c(Nc4nccc(-c5cccnc5)n4)c3)cc(C(F)(F)F)c2)cn1 [Tasigna]
  IC50: 93.2 nM
